Molecular target: T1, Solute carrier family 22 member 1 (Homo sapiens, UniProt O15245)
T1 sequence (O15245 whole entry): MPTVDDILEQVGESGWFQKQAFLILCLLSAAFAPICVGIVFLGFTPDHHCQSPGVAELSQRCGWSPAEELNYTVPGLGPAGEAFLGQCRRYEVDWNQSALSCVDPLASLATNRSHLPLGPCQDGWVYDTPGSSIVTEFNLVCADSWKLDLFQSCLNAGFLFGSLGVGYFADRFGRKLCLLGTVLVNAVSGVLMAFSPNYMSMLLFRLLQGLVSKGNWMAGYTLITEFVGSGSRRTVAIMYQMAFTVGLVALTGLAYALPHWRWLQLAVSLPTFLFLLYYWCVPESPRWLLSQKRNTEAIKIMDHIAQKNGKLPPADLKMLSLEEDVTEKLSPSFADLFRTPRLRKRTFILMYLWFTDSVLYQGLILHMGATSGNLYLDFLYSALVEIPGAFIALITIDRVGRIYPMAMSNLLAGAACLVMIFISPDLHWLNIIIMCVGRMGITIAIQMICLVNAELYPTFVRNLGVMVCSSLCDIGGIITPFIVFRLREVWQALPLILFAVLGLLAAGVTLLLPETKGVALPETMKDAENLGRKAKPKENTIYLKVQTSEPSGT
Assay: Inhibition of OCT1-mediated [14C]tetraethylammonium uptake in human OCT1 expressing HEK293/PDZK1 cells by scintillation counting
Type: ADME, cell-based
Conditions: human, hek293/pdzk1; call rule not given here

Structure (SMILES): CC[N+](CC)(CC)CC [TETRYLAMMONIUM]
- inhibition (INH): Active
